# Test results published in patent US9388126B2, “Sigma receptor ligands and methods of modulating cellular protein homeostasis using same” (Drexel University, priority 2012, dated 2016).
# Assays:
# [1] = system: MCF-7, T47D and MDA-MB-468 cells; assay: Cell proliferation by Alamar blue reduction, breast adenocarcinoma cultures; assay type: cell-based, human; design: anti-proliferative effect: dose or concentration left out as unconfirmed; details: for inhibition of cell proliferation: after 4 days of treatment, six drug concentrations; for anti-proliferative effect: 4 days
# From the text: In vitro cell proliferation was quantitated by Alamar blue reduction. The anti-proliferative effects of six drug concentrations of the indicated drugs were quantitated after 4 days of treatment.
# [2] = system: MDA-MB-468 breast adenocarcinoma cells; assay: LC3 lipidation (LC3II) immunoblot; assay type: cell-based, human; details: 10 μM, 24 hours
# Procedure: Cells were lysed and proteins extracted in a modified RIPA buffer (25 mM Tris-HCl pH 7.6, 150 mM NaCl, 1% NP-40, 1% sodium deoxycholate and 0.1% SDS) supplemented with 10% glycerol (volume/volume), complete protease inhibitor cocktail (Roche), and Halt phosphatase inhibitor cocktail (Pierce). Approximately 10-20 μg of detergent soluble protein were resolved on NOVEX 10-20% polyacrylamide Tris-glycine gels (InVitrogen). Immunoblots were performed in a 20 mM Tris-buffered 137 mM saline solution (pH 7.6) containing 0.1% Tween-20 (polyoxyethylene (20) sorbitan monolaurate) and 5% (weight/volume) blotting grade non-fat dry milk (BioRad). The Lumigen PS-3 enhanced chemiluminescence kit (GE Healthcare) was used to reveal immunoblotted proteins.
# Initially, an established immunoblot-based assay to detect microtubule associated protein light chain 3 (LC3) lipidation was used to test for the activation of autophagy. […] Since transient transfections can produce spurious GFP-LC3 aggregates, stable GFP-LC3 transfected populations of MDA-MB-468 (GFP-LC3) were generated. These cells were treated for 24 hours with increasing concentrations of Sigma receptor antagonists and agonists, and were compared to basal and DMSO treated controls (FIGS. 4B & 4C).
# [3] = system: MDA-MB-468 (GFP-LC3) cells; assay: GFP-LC3 punctae (autophagosome formation) microscopy assay; assay type: cell-based, human; details: for EC50: Homo sapiens, MDA-MB-468, 24 hours of treatment, read-out: potency (EC50±S.E.M.) of autophagosome formation (GFP-LC3 punctae); for concentration at which precipitous cell death occurred: following 24 hours of treatment; for GFP-LC3 punctae per cell: drug concentrations up to 100 μM
# Procedure: The human GFP-LC3 expression plasmid, pEGFP-LC3 (a gift from Drs. Grazia Ambrosini and Gary K. Schwartz, MSKCC), was stably transfected into MDA-MB-468 and selected with 0.5 mg/ml G418 sulfate. Stable populations were generated and compared to parental MDA-MB-468 for Sigma1 expression and autophagic and growth inhibitory response to Sigma ligands. GFP-LC3 translocation (punctae formation) was assessed by microscopy in MDA-MB-468 (GFP-LC3) stable cell populations. For microscopy-based experiments, cells were seeded onto Lab-Tek II glass chamber slides (Nalge Nunc International). […] Images of GFP-LC3 punctae were acquired with a Zeiss Axioplan 2 Imaging widefield microscope using Axiovision LE software. Punctae were counted using the spot quantitation program in the Fluoro-Chem software package (Alpha Innotech) and confirmed in parallel by manual counting. Autophagosome formation in MDAMB-468 (GFP-LC3) cells was quantitated as the mean number of GFP-LC3 punctae per GFP positive cell.
# Initially, an established immunoblot-based assay to detect microtubule associated protein light chain 3 (LC3) lipidation was used to test for the activation of autophagy. […] Since transient transfections can produce spurious GFP-LC3 aggregates, stable GFP-LC3 transfected populations of MDA-MB-468 (GFP-LC3) were generated. […]
# [4] = system: MCF7 tumor xenograft; assay: MCF7 tumor xenograft, tamoxifen potentiation by rimcazole; assay type: in vivo, athymic mice; details: for inhibition of tumor growth: after 11 days of daily i.p. treatment, tamoxifen 1 mg/kg, Rimcazole 10 mg/kg, each alone
# Procedure: Preliminary tumor xenograft experiments were performed according to MSKCC Tumor Assessment Core facility protocol. Briefly, β-estradiol treated athymic mice were injected with MCF7 cells, and drug treatment was initiated when mean tumor volume reached approximately 140 mm^3, which occurred 17 days following MCF-7 injection. Daily i.p. drug injections were performed for up to 11 days, and tumor volume was quantified by the formula: tumor volume=L×W^2×π/6. In this pilot experiment, 3-5 mice were tested per group. […] An extended time course, with more mice per group and multiple drug doses, may be performed to determine whether the tumor growth inhibitory effect of combined drug treatment is additive or synergistic.
# [5] = system: MDA-MB-468 cells; assay: Cell death by trypan blue exclusion; assay type: cell-based, human; details: 3-MA alone (5 mM), 24 hours
# Procedure: Trypan blue exclusion and propidium iodide staining were used to quantify general cell death and the presence of apoptotic cell death was confirmed by immunoblot. The percentage of dead cells in a given population was determined by quantifying the number of trypan blue positive (dead) cells and dividing by the total number of trypan blue positive and negative cells.
# [6] = system: MDA-MB-468 breast tumor cells; assay: Akt, S6K and ERK phosphorylation immunoblots; assay type: cell-based, human; details: 10 μM, 24 hours
# Procedure: FIG. 40, comprising FIGS. 40A-40C, illustrates Sigma1 antagonist modulation of Akt, S6K, and ERK phosphorylation. MDA-MB-468 breast tumor cells were treated for 24 hours with 10 μM IPAG (Sigma1 antagonist) or (+)SKF-10047 (SKF, Sigma1 agonist). Treated cells were harvested and cellular proteins were extracted with a buffer containing 1% Sodium Dodecyl Sulfate (SDS) and deoxycholate (DOC), supplemented with phosphatase and protease inhibitors. FIG. 40A is an image of an immunoblot illustrating Akt phosphorylation. […] Akt phosphorylation at threonine 308 was not altered in any of the samples (not shown). Equivalent loading was confirmed with an anti-GAPDH antibody. FIG. 40B is an image of an immunoblot illustrating phosphorylation. Phosphorylation of mTOR substrate, p70S6K at threonine 389 decreased 3-fold in IPAG, but not SKF treated cells. Total p70S6K was immunoblotted as a loading control. FIG. 40C is an immunoblot illustrating that p44/42 ERK1/2phosphorylation at threonine 202 and tyrosine 204 was abrogated by 24 hour treatment with IPAG. Data shown is representative of two independent experiments.
# [7] = system: T-47D breast adenocarcinoma cells; assay: Cell size by flow cytometry (mean FSC-H, G1 phase); assay type: cell-based, human; details: 10 μM, 24 hours; control 412±5
# Procedure: FIG. 31A is a differential interference contrast (DIC) image of MDA-MB-468 breast adenocarcinoma cells treated for ˜20 hours with DMSO (drug vehicle control), 10 μM IPAG (antagonist) or 10 μM PRE084 (agonist). A twenty-micron bar is shown in each image. Data are presented as mean±SEM. FIG. 31B is a graph illustrating the finding that IPAG diminished the mean cell size (FSC-H) of MDA-MB-468 breast tumor cells in a time-responsive manner. The mean FSC-H of 370±5 at to decreased to 323±4 after 24 hours of IPAG treatment and to 267±2 after 48 hours of treatment. Two-tailed t-tests were performed to determine statistical significance. For IPAG treatment compared to control (DMSO) and Sigma agonists (SKF and PRE084), P=0.0002 at d1 and P=0.00013 at d2. Data were generated from three to five independent determinations for each time-point. Flow cytometry was used to measure mean cell size (mean FSC-H) of T-47D breast adenocarcinoma cells. FIG. 31C is a bar graph illustrating T-47D cells treated for 24 hours with 10 μM indicated Sigma ligand. IPAG and BD 1047 (Sigma1 antagonists) diminished cell size from a mean FSC-H of 412±5 for control (DMSO) cells versus 341±7 and 381±8 for IPAG and BD1047 treated cells, respectively. […] Data represent 5 independent determinations (*P<0.05, ***P<0.001). FIG. 31D is a bar graph illustrating how IPAG (antagonist) decreases cell size in a dose responsive manner. T-47D were treated for 24 h with 1 and 10 μM IPAG, and mean FSC-H was measured. FIG. 31E is a graph illustrating that T47D cell size decreases over time. T-47D cells were treated for a total of 48 hours with 10 μM of the indicated Sigma ligands. […] Neither Sigma1 agonist, (+)-SKF10047 and PRE084, altered cell size. […] Two-tailed t-tests were performed to determine statistical significance. For IPAG treatment compared to control (DMSO) and Sigma1 agonists (SKF and PRE084), P=0.0002 at d1 and P<0.0001 at d2. For FIGS. 31B-31E, the mean FSC-H was determined for each cell cycle population (i.e., G1, S, G2/M), and data is shown for G1 phase cells. S and G2/M phase cells responded similarly (data not shown).
# [8] = system: T47D and MDA-MB-468 cells; assay: Cell cycle profile (G1, S, G2 phase cells); assay type: cell-based, human; details: 24 hours; IPAG 1 μM (T47D) or 10 μM (MDA-MB-468); (+)-SKF-10047 10 μM
# Procedure: FIG. 30, comprising FIGS. 30A-30B, illustrates that Sigma1 antagonists mediate cell cycle arrest. […] FIG. 30A is a graph illustrating the percentage of G1, S, and G2 phase cells in T47D cells treated for 24 hours with DMSO (vehicle control), 1 μM IPAG (Sigma1 antagonist), or 10 μM (+)SKF-10047 (Sigma1 agonist). FIG. 30 B is a graph illustrating the percentage of G1, S, and G2 phase cells in MDA-MB-468 cells treated for 24 hours with DMSO (vehicle control), 10 μM IPAG (Sigma1 antagonist), or 10 μM (+)-SKF-10047 (Sigma1 agonist).
smiles,measurement,setting,value
"CN1CCN(CCc2ccc(Cl)c(Cl)c2)CC1 [BD1063, 1-[2-(3,4-dichlorophenyl)ethyl]-4-methylpiperazine]",inhibition of cell proliferation,[1],also inhibited cell proliferation
"COc1cccc2c1CCCC2CCCN1CCN(C2CCCCC2)CC1 (centres unmarked) [PB28, 1-cyclohexyl-4-[3-(5-methoxy-1,2,3,4-tetra-hydronaphthalen-1-yl)propyl]piperazine]",conversion of LC3 to LC3II (autophagosome formation),[2],converted LC3 to LC3II
same,EC50,[3],52 ± 9 µM
same,concentration at which precipitous cell death occurred,[3],100 µM
"CC/C(=C(\c1ccccc1)c1ccc(OCCN(C)C)cc1)c1ccccc1 [tamoxifen, (Z)-2-[4-(1,2-diphenylbut-1-enyl)phenoxy]-N,N-dimethylethanamine]",inhibition of tumor growth,[4],approximately 50%
same,inhibition of cell proliferation,[1],inhibited cell proliferation with similar potencies
"Cn1cnc(N)c2ncnc1-2 [Compound 3-MA, 3-methyladenine]",dead cells per well,[5],6±2%
same,punctae per cell,"[3]; 5 mM 3-MA alone, 24 hours",5±1 punctae per cell
"C=CCN1CC[C@]2(C)c3cc(O)ccc3C[C@H]1[C@H]2C (relative stereo) [(+)-SKF10047, [2S-(2α,6α,11R*]-1,2,3,4,5,6-hexahydro-6,11-dimethyl-3-(2-propenyl)-2,6-methano-3-benzazocin-8-ol]",decrease of Akt phosphorylation at serine 473,[6],did not alter Akt phosphorylation
same,mean FSC-H (relative cell size),[7],did not alter cell size
same,cell cycle profile,[8],did not present significant difference in cell cycle profile
same,anti-proliferative effect,[1],ineffective
same,GFP-LC3 punctae per cell,[3]; 24 hours,≤ 5±1 punctae per cell
"C[C@@H]1CN(CCCn2c3ccccc3c3ccccc32)C[C@H](C)N1 [rimcazole, 9-{3-[(3R,5S)-3,5-dimethylpiperazin-1-yl]propyl}-9H-carbazole]",inhibition of tumor growth,[4],approximately 50%
same,tumor growth,"[4]; tamoxifen (1 mg/kg) and Rimcazole (10 mg/kg) combined, 11 day time course",completely inhibited
same,conversion of LC3 to LC3II (autophagosome formation),[2],converted LC3 to LC3II
same,inhibition of cell proliferation,[1],inhibited cell proliferation with comparable potencies in all cell lines
same,EC50,[3],50 ± 8 µM
same,concentration at which precipitous cell death occurred,[3],100 µM
"CC(C)=CCN1CC[C@]2(C)c3cc(O)ccc3C[C@H]1[C@H]2C (relative stereo) [(+)-pentazocine, (+)-[2S-(2,6,11R*)]-1,2,3,4,5,6-hexahydro-6,1-dimethyl-3-(3-methyl-2-butenyl)-2,6-methano-3-benzazocin-8-ol]",anti-proliferative effect,[1],ineffective
same,GFP-LC3 punctae per cell,[3]; 24 hours,≤ 6±1 punctae per cell
"CN(C)CCN(C)CCc1ccc(Cl)c(Cl)c1 [BD1047, N′-[2-(3,4-dichlorophenyl)ethyl]-N,N,N′-trimethylethane-1,2-diamine]",mean FSC-H (relative cell size),[7],381±8
same,inhibition of cell proliferation,[1],also inhibited cell proliferation
